Experimental data published in US20130189764A1, “SELECTIVE GROWTH MEDIA” (Oxide Limited, priority 2000, published 2013).
Converted amounts (≈) assume the structure as drawn. Blank lines part the entries; values can stand above or below the compound they belong to.

Key:
[1] = test system: Salmonella typhimurium OCC 722; test: Bioscreen growth, comparison with conventional selective agents (Example 12); format: cell-based; conditions: Buffered Peptone Water pH 6.8
Protocol: (§1) The following is an example to illustrate the beneficial lower toxic properties of the new selective agents towards the target microorganism, in this case Salmonella. Two selective agents, cefsulodin and novobiocin, as used conventionally in Salmonella isolation from foods (Humphrey and Whitehead, 1992 British Poultry Science 33, 761-768) were compared with alaphosphin. All were dissolved in deionised water, filter sterilised, and an amount of the solution added to either autoclaved Lab-Lemco broth+phosphate buffer (20 g/l; pH 6.0; ala-AEP) or Buffered Peptone Water (pH 6.8; cefsulodin and novobiocin) to give final concentrations of 66, 16.5 and 11 μg/ml respectively. [The different pH values reflect the different pH optima of the selective agents (ala-AEP was also subsequently used in BPW at pH 6.8 and similar results obtained)]. Volumes (300 μl) were then pipetted into the wells of Bioscreen microtitre plates and 30 μl quantities of 1 in 10,000 dilutions of overnight cultures of E. coli OCC 2129 and Salmonella typhimurium OCC 722, added. Plates were then covered, incubated at 37° C., and the opacity of the organism suspensions measured using a Bioscreen instrument.
(§2) Typical results are shown in FIGS. 17-19, which are graphs of optical density against time for S. typhimurium (circles) and E. coli (squares) in the presence (empty symbols) or absence (filled symbols) of 15 μg/ml cefsulodin (FIG. 17), 10 μg/ml novobiocin (FIG. 18) or 60 μg/ml alaphosphin (FIG. 19).

[2] = test system: E. coli OCC 2129; test: as above; format: cell-based, Escherichia coli; conditions: at 12 hours
Protocol: as §1, §2

[3] = test system: Citrobacter freundii 370; test: MIC in DMSal medium (Example 17); format: cell-based; conditions: Citrobacter freundii 370, DMSal medium
[4] = test system: Enterobacter sakazakii 1888; test: MIC in DMSal medium (Example 17); format: cell-based; conditions: Enterobacter sakazakii 1888, DMSal medium
[5] = test system: E. coli 607; test: MIC in DMSal medium (Example 17); format: cell-based; conditions: E. coli 607, DMSal medium
[6] = test system: Salmonella typhimurium 722; test: MIC in DMSal medium (Example 17); format: cell-based
Protocol: (§3) Isoleucyl-AEP and sarcosyl-alanyl-AEP were compared to ala-AEP (all in DMSal medium) for the ability to selectively recover two clinically important pathogenic bacteria: Salmonella and Staphylococcus aureus.
(§4) For selective growth of Salmonella inhibition of Citrobacter, Enterobacter sakazakii and E. coli is important. […] Sarcosyl-alanyl-AEP used at a concentration of 1.0 μg/ml is sufficient to inhibit the growth of all three undesired bacteria while having no effect on growth of Salmonella typhimurium. […] Alternatively, a concentration of 2.0 μg/ml of isoleucyl-AEP is required to inhibit the growth of Citrobacter, Enterobacter sakazakii and E. coli and this concentration has no effect on the Salmonella typhimurium strain tested.

[7] = test system: Enterococcus faecalis 501; test: MIC in DMSal medium (Example 17); format: cell-based; conditions: Enterococcus faecalis 501, DMSal medium
[8] = test system: Enterococcus faecalis 581; test: MIC in DMSal medium (Example 17); format: cell-based; conditions: Enterococcus faecalis 581, DMSal medium
Excerpt: as §3

[9] = test system: S. aureus ss aureus 2355; test: MIC in DMSal medium (Example 17); format: cell-based; conditions: S. aureus ss aureus 2355, DMSal medium
Excerpt: as §3

[10] = test system: Enterococcus faecalis 640; test: MIC in DMSal medium (Example 17); format: cell-based; conditions: Enterococcus faecalis 640, DMSal medium
[11] = test system: Enterococcus faecium 220; test: MIC in DMSal medium (Example 17); format: cell-based; conditions: Enterococcus faecium 220, DMSal medium
[12] = test system: Citrobacter, Enterobacter sakazakii and E. coli; test: inhibition of the three undesired bacteria in DMSal (Example 17); format: cell-based
Protocol: as §3, §4

[13] = test system: E. faecalis 640 and S. aureus 106; test: selective recovery of S. aureus on DMSal agar seeded with E. faecalis (Example 18); format: cell-based, Enterococcus faecalis, Staphylococcus aureus; conditions: 20 μg/ml, DMSal agar with horse serum (50 ml/L), approximately 24 hours at 37° C.
Protocol: The effectiveness of sulfacetamide-β-D-galactoside as a selective agent for recovery of S. aureus in the presence of E. faecalis was tested. Sulfacetamide-β-D-galactoside (20 μg/ml) and horse serum (50 ml/L) was added to DMSal agar to make the test plates; DMSal agar without sulfacetamide-β-D-galactoside served as the control. All plates (with and without sulfacetamide-β-D-galactoside) were seeded with E. faecalis 640 and half of the total number of plates (with and without sulfacetamide-β-D-galactoside) were streaked with S. aureus 106. All plates were incubated for approximately 24 hours at 37° C.
As FIGS. 22a and 22b show, all plates without sulfacetamide-β-D-galactoside supported growth of E. faecalis.

SMILES: NC(=O)c1cc[n+](CC2=C(C(=O)O)N3C(=O)[C@@H](NC(=O)[C@@H](c4ccccc4)S(=O)(=O)[O-])[C@H]3SC2)cc1 [cefsulodin]
effect on growth of S. typhimurium ([1]; 15 μg/ml cefsulodin): significantly inhibit
growth of E. coli relative to S. typhimurium ([2]; 15 μg/ml cefsulodin): substantially outgrows

MIC [3]: 2.0 µg/mL (≈ 8.4 µM)
MIC [4]: 2.0 µg/mL (≈ 8.4 µM)
MIC [5]: 2.0 µg/mL (≈ 8.4 µM)
MIC ([6]; Salmonella typhimurium 722, DMSal medium): 10 µg/mL (≈ 42 µM)
MIC [7]: 5 µg/mL (≈ 21 µM)
MIC [8]: 5 µg/mL (≈ 21 µM)
MIC [9]: >200 µg/mL
MIC [10]: 5 µg/mL (≈ 21 µM)
MIC [11]: 5 µg/mL (≈ 21 µM)
SMILES: CCC(C)C(N)C(=O)NC(C)P(=O)(O)O (stereo not shown) [isoleucyl-AEP, Isoleucyl-AEP]
effect on growth of Salmonella typhimurium ([6]; isoleucyl-AEP at 2.0 μg/ml, DMSal): no effect
concentration sufficient / required to inhibit the growth of all three undesired bacteria [12]: 2.0 µg/mL

SMILES: CO[C@@H]1[C@@H](OC(N)=O)[C@@H](O)[C@H](Oc2ccc3c(O)c(NC(=O)c4ccc(O)c(CC=C(C)C)c4)c(=O)oc3c2C)OC1(C)C [novobiocin]
effect on growth of S. typhimurium ([1]; 10 μg/ml novobiocin): significantly inhibit
growth of E. coli relative to S. typhimurium ([2]; 10 μg/ml novobiocin): substantially outgrows

SMILES: CC(=O)NS(=O)(=O)c1ccc(N[C@@H]2O[C@H](CO)[C@H](O)[C@H](O)[C@H]2O)cc1 [sulfacetamide-β-D-galactoside]
colonies observed on plates seeded with E. faecalis and streaked with S. aureus [13]: only colonies of S. aureus were observed
